Reference: US11679095B2, “Macrophages/microglia in neuro-inflammation associated with neurodegenerative diseases” (The General Hospital Corporation, priority 2016, dated 2023)
“Also recorded” adds a separate entry of the source. Values belong to the compound of their own block, whether it stands above or below them.

Legend:
[1] = Solubility in DMSO (stock solutions); format: physicochemical; details: in comparison to the other compounds / earlier aliquot
Protocol: Therefore, a 25 mM stock solutions for all the compounds except for C3 and C4 were prepared. The stock solutions for C3 and C4 were prepared at 5 mM and 7.5 mM, respectively. C1 is the parent compound—cromolyn disodium.

[2] = tested on: naïve BV2 microglial cells; assay: Aβ42 uptake ELISA, 3 h cromolyn derivative treatment, naïve BV2; format: cell-based; details: 3 hours + 2 hours
Protocol: (§1) To investigate the effect of cromolyn derivatives on Aβ42 uptake in microglia, naïve BV2 or BV2-CD33^WT cells were plated in proliferating media. On the following day, cells were treated with DMSO (control) or the compounds at different concentrations in proliferating media for 3 hours. […] Afterwards, cells were washed with PBS and treated with DMSO or compounds in the presence of the untagged Aβ42 peptide (400 nM) in DMEM media for 2 hours. Compound toxicity was assessed in the media collected at the end of the treatment with CytoTox-ONE™ lactate dehydrogenase (LDH) assay. The remaining cells in the plate were washed with cold PBS and lysed with RIPA buffer supplemented with protease and phosphatase inhibitors. Protein concentrations in the lysate supernatants were determined using the Pierce™ BCA protein assay kit and 2-3 μg/well of total protein from each lysate was analyzed for Aβ42 uptake using the Aβ42 ELISA kit from Wako. Toxic compound concentrations were excluded from further studies.
To test whether cromolyn derivatives modulate Aβ42 uptake, naïve BV2 microglial cells were treated with DMSO (control) or cromolyn derivative compounds at different concentrations for 3 hours. Afterwards, the cells were washed and treated with DMSO or compounds in the presence of untagged Aβ42 peptide for 2 hours. At the end of the treatment, the cell lysates were collected. […]

BV2-CD33^WT cells = assay: Aβ42 uptake ELISA, 3 h cromolyn derivative treatment, BV2-CD33^WT; format: cell-based
Protocol: as §1
Further, whether cromolyn derivatives impact Aβ42 uptake and clearance in BV2-CD33^WT cells was determined by two independent sets of experiments. BV2-CD33^WT cells were treated with DMSO (control) or cromolyn derivatives at different concentrations ranging between 5 and 150 μM.
The compound C2 was tested with other cromolyn derivatives in the second set of experiments.

[3] = tested on: naïve BV2 microglial cells; assay: CytoTox-ONE lactate dehydrogenase (LDH) toxicity assay; format: cell-based; details: 3 hours + 2 hours with Aβ42
Protocol: On the following day, cells were treated with DMSO (control) or the compounds at different concentrations in proliferating media for 3 hours. […] Afterwards, cells were washed with PBS and treated with DMSO or compounds in the presence of the untagged Aβ42 peptide (400 nM) in DMEM media for 2 hours. Compound toxicity was assessed in the media collected at the end of the treatment with CytoTox-ONETM lactate dehydrogenase (LDH) assay. The remaining cells in the plate were washed with cold PBS and lysed with RIPA buffer supplemented with protease and phosphatase inhibitors. […] Toxic compound concentrations were excluded from further studies. To investigate whether cromolyn derivatives induce cytotoxicity at higher doses, naïve BV2 microglial cells were incubated with DMSO (vehicle) or cromolyn derivatives at different concentrations for 3 hours. The cells were then washed and incubated with DMSO or compounds and soluble untagged Aβ42 for additional 2 hours. Afterwards, the cell media was collected and measured LDH released by the damaged cells to identify the compounds that induce cytolysis.

BV2 microglial cells = assay: Aβ42 uptake in BV2 microglial cell cultures, cromolyn and/or ibuprofen (ELISA); format: cell-based; details: 10 μM, 100 μM, 1 mM; 16 hours, then 3 hours with soluble Aβ42
Protocol: BV2 microglial cell cultures were treated with cromolyn and/or ibuprofen (10 μM, 100 μM, 1 mM) for 16 hours. Afterwards, cells were incubated with soluble Aβ42 and the compounds for 3 hours. After incubation, cells were collected for ELISA analysis. […] Results were derived from three independent experiments; **p<0.01, ***p<0.001, one-way ANOVA, Tukey's test). Data are represented as mean±SEM.

SMILES: O=c1cc(CO)oc2cccc(OCC(F)COc3cccc4oc(CO)cc(=O)c34)c12 [C6]
Aβ42 uptake ([2]; different concentrations): robust inhibition of Aβ42 uptake
Aβ42 uptake (BV2-CD33^WT cells; different concentrations, first set of experiments, vs DMSO): dose-dependent effect in mediating inhibition of Aβ42 uptake

SMILES: CC(C)(C)C(=O)OCOC(=O)c1cc(=O)c2c(OCC(O)COc3cccc4oc(C(=O)OCOC(=O)C(C)(C)C)cc(=O)c34)cccc2o1 [C8]
toxicity (LDH released) ([3]; 100 and 150 μM, vs DMSO): showing toxicity; also recorded: increased toxicity
concentration at which toxicity is displayed in LDH assay [3]: ≥ 100 µM

SMILES: CC(C)Cc1ccc(C(C)C(=O)O)cc1 (stereo not shown) [ibuprofen]
microglial Aβ42 uptake (BV2 microglial cells): not ibuprofen promotes microglial Aβ42 uptake

More lines, main results first:

solubility in DMSO [1]: lower solubility in DMSO
SMILES: O=C(O)c1cc(=O)c2c(OCC(O)COc3cccc4oc(C(=O)O)cc(=O)c34)cccc2o1 [C1, Cromolyn Disodium, reference compound]

solubility in DMSO [1]: lower solubility in DMSO
SMILES: CCOC(=O)c1cc(=O)c2c(OCC(O)COc3cccc4oc(C(=O)OCC)cc(=O)c34)cccc2o1 [C3]

IC50 (BV2-CD33^WT cells; GraphPad Prism 7, first set of experiments): 54.7 µM
solubility in DMSO [1]: lower solubility in DMSO
SMILES: CCOC(=O)c1cc(=O)c2c(OCC(F)COc3cccc4oc(C(=O)OCC)cc(=O)c34)cccc2o1 [C4]
Aβ42 uptake ([2]; 75 μM, vs vehicle): increased uptake of Aβ42 peptide; also recorded: significantly increased Aβ42 uptake levels
Aβ42 uptake (BV2-CD33^WT cells; 50 μM, first set of experiments): dose-dependent effect
Aβ42 uptake in comparison to DMSO (BV2-CD33^WT cells; 75 μM, first set of experiments): two-fold increase; also recorded: increased uptake of Aβ42
Aβ42 uptake (BV2-CD33^WT cells; 75 μM, second set of experiments): most effective in increasing the Aβ42 uptake
Aβ42 uptake (BV2-CD33^WT cells; 50 and 75 μM, second set of experiments, vs DMSO): effectively induced Aβ42 uptake
CD33-mediated inhibition of Aβ uptake and clearance (BV2-CD33^WT cells; both sets of experiments): reversed the CD33-mediated inhibition of Aβ uptake and clearance
Aβ42 uptake (BV2-CD33^WT cells; lower concentrations, second set of experiments, vs DMSO): dose-dependent effect at lower concentrations
